Values quoted from earlier work, collected in patent publication US7659300B2, “Monocyclic anilide spirolactam CGRP receptor antagonists” (Merck Sharp & Dohme Corp., priority 2004, dated 2010).
No end group written: not given here.

Key:
migraine = conditions: clinical studies, intravenously administered (Olesen et al. 2004)
facial blood flow [1] = conditions: marmoset, electrical stimulation of the trigeminal ganglion (Doods et al. 2000)
middle meningeal artery = conditions: rats, electrical stimulation of the dura mater, prior administration (Williamson et al. 1997)
facial blood flow [2] = conditions: rat, trigeminal ganglion stimulation (Escott et al. 1995)

Compound	acute treatment of migraine (migraine)	increase in facial blood flow (facial blood flow [1])	increase of the diameter of the middle meningeal artery (middle meningeal artery)	increase of facial blood flow (facial blood flow [2])
NCCCC[C@H](NC(=O)[C@@H](Cc1cc(Br)c(O)c(Br)c1)NC(=O)N1CCC(N2Cc3ccccc3NC2=O)CC1)C(=O)N1CCN(c2ccncc2)CC1 [BIBN4096BS]	safe and effective acute treatment for migraine	blocked	–	–
CGRP(8-37): a peptide CGRP antagonist; fragment of CGRP that lacks seven N-terminal amino acid residues (VTHRLAGLLSRSGGVVKNNFVPTNVGSKAF; ends and bridges not checked; UniProt P06881 90-119, looked up, fragment)	–	–	blocked	inhibited
